Results: US10266525B2, “Processes for preparing 2-(6-(1H-indol-4-yl)-1H-indazol-4-yl)-5-((4-isopropylpiperazin-1-yl)methyl)oxazole” (GlaxoSmithKline Intellectual Property Development Limited, priority 2015, dated 2019)

Legend:
[1] = solubility in simulated lung fluid; assay type: physicochemical
hygroscopicity = assay type: physicochemical

Q: Which results are given for `CC(C)N1CCN(Cc2cnc(-c3cc(-c4cccc5[nH]ccc45)cc4[nH]ncc34)o2)CC1.O=C(O)c1ccccc1` [benzoate salt of Compound A, 2-(6-(1H-Indol-4-yl)-1H-indazol-4-yl)-5-((4-isopropylpiperazin-1-yl)methyl)oxazole benzoate]?
A: solubility in simulated lung fluid [1]: suitable; hygroscopicity (hygroscopicity): suitable
